ChEMBL document CHEMBL3400143, “Discovery and hit-to-lead optimization of 2,6-diaminopyrimidine inhibitors of interleukin-1 receptor-associated kinase 4” (Bioorg Med Chem Lett, 2015)
The source made the active and inactive calls. The rule behind the calls is not given here.

Assays:
[1] = target: BDNF/NT-3 growth factors receptor (Homo sapiens) (UniProt Q16620); experiment: Inhibition of TRKB (unknown origin)
[2] = target: Receptor-type tyrosine-protein kinase FLT3 (Homo sapiens) (UniProt P36888); experiment: Inhibition of FLT3 (unknown origin)
[3] = target: Dual specificity protein kinase CLK4 (Homo sapiens) (UniProt Q9HAZ1); experiment: Inhibition of CLK4 (unknown origin)
[4] = target: T1, Interleukin-1 receptor-associated kinase 4 (Homo sapiens, UniProt Q9NWZ3); experiment: Inhibition of N-terminal GST tagged human recombinant full-length IRAK4 expressed in Sf9 insect cells assessed as reduction in substrate phosphorylation using RP7030 peptide substrate and ATP incubated for 30 mins fluorescence polarization assay
T1 sequence (Q9NWZ3 whole entry): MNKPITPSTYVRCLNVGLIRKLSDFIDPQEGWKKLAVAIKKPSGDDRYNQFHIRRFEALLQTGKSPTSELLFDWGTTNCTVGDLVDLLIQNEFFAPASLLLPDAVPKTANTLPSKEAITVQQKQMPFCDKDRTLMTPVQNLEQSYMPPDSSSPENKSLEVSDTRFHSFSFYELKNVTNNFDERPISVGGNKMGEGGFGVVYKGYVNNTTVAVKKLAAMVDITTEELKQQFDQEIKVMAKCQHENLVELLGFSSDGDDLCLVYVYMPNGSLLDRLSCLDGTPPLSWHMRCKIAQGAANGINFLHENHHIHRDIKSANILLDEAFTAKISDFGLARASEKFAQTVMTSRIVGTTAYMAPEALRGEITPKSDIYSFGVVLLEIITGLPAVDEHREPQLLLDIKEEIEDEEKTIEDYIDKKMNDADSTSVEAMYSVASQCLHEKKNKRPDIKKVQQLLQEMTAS

[5] = target: High affinity nerve growth factor receptor (Homo sapiens) (UniProt P04629); experiment: Inhibition of TRKA (unknown origin)
[6] = target: NT-3 growth factor receptor (Homo sapiens) (UniProt Q16288); experiment: Inhibition of TRKC (unknown origin)
[7] = target: Mitogen-activated protein kinase kinase kinase kinase 4 (Homo sapiens) (UniProt O95819); experiment: Inhibition of MAP4K4 (unknown origin)
Sequence of Mitogen-activated protein kinase kinase kinase kinase 4 (Homo sapiens) (O95819 2-1239 limits assumed): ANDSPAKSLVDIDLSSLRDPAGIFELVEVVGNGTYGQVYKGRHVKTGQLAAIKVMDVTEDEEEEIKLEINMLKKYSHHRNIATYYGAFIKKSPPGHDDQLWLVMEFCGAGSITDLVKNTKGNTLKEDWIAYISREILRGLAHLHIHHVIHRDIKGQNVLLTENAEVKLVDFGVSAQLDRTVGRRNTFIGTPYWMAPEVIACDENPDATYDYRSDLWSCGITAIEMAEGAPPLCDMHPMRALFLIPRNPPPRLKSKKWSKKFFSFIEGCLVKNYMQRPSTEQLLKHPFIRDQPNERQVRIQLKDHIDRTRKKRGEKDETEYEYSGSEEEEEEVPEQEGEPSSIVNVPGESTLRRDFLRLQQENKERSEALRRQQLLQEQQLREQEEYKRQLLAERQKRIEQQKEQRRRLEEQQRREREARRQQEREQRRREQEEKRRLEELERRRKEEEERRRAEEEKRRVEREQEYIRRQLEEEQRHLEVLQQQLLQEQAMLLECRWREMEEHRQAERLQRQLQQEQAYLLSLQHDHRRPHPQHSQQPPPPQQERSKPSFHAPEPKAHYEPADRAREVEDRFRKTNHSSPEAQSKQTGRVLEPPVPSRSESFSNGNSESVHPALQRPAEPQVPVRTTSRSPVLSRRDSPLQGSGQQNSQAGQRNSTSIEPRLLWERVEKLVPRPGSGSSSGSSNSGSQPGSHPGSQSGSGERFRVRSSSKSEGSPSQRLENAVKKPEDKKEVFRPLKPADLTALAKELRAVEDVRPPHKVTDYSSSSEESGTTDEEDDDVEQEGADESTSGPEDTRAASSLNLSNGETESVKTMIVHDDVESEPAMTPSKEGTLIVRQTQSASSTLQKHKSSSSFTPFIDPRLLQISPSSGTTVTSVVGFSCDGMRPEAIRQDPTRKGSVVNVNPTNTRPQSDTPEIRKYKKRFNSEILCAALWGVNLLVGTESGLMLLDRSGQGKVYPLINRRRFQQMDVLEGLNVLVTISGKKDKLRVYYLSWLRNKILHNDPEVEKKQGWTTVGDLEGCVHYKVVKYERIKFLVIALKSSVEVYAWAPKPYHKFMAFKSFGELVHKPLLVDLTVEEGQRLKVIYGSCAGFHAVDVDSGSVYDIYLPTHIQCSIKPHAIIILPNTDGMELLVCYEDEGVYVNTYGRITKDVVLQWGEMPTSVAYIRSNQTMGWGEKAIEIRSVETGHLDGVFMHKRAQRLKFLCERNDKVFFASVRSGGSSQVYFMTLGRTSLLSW

Sequence of High affinity nerve growth factor receptor (Homo sapiens) (P04629 33-796 limits assumed): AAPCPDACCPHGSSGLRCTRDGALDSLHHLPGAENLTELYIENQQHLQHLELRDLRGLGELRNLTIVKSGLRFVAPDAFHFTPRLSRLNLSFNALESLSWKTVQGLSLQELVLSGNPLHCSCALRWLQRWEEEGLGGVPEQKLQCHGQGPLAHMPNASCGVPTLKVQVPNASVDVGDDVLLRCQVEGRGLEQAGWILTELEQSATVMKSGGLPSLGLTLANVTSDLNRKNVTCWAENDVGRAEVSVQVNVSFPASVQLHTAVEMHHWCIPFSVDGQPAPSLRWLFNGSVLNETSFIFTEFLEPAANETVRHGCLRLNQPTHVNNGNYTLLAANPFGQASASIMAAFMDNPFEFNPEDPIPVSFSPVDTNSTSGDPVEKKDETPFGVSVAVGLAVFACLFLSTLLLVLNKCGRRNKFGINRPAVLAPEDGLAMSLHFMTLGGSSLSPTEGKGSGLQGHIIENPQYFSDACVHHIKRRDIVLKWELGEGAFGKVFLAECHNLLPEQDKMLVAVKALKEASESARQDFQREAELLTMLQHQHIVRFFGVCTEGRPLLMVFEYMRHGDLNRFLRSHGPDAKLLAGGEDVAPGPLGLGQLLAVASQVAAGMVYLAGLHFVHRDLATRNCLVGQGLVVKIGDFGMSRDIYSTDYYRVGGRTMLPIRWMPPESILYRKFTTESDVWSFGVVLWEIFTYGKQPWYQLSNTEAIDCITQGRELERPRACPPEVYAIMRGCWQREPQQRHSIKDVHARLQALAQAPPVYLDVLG
Sequence of Receptor-type tyrosine-protein kinase FLT3 (Homo sapiens) (P36888 whole entry): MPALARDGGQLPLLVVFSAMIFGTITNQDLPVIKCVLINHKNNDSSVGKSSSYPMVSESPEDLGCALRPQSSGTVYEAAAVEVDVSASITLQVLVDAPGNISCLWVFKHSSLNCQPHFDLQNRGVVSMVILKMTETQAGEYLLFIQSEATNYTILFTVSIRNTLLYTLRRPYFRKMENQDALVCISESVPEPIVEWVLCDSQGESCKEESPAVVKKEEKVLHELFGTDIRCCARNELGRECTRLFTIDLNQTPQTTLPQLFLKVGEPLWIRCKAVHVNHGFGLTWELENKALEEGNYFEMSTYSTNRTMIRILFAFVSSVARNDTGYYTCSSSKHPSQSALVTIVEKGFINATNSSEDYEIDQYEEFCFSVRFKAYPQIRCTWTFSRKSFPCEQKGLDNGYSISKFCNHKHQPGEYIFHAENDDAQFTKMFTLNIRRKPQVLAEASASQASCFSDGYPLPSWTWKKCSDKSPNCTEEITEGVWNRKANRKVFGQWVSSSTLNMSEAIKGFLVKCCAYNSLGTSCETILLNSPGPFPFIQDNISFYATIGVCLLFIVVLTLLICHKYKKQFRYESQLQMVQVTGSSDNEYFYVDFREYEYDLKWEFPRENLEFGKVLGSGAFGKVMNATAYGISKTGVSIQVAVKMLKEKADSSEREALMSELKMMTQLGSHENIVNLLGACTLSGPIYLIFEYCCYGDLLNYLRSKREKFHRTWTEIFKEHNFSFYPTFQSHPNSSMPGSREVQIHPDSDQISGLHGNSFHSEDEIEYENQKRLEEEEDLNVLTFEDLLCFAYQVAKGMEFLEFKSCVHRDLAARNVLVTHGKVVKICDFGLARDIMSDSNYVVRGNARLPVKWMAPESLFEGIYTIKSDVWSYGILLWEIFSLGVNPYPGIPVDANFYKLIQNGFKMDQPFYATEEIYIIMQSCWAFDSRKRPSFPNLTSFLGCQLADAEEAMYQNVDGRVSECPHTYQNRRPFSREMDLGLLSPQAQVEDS
Sequence of NT-3 growth factor receptor (Homo sapiens) (Q16288 32-839 limits assumed): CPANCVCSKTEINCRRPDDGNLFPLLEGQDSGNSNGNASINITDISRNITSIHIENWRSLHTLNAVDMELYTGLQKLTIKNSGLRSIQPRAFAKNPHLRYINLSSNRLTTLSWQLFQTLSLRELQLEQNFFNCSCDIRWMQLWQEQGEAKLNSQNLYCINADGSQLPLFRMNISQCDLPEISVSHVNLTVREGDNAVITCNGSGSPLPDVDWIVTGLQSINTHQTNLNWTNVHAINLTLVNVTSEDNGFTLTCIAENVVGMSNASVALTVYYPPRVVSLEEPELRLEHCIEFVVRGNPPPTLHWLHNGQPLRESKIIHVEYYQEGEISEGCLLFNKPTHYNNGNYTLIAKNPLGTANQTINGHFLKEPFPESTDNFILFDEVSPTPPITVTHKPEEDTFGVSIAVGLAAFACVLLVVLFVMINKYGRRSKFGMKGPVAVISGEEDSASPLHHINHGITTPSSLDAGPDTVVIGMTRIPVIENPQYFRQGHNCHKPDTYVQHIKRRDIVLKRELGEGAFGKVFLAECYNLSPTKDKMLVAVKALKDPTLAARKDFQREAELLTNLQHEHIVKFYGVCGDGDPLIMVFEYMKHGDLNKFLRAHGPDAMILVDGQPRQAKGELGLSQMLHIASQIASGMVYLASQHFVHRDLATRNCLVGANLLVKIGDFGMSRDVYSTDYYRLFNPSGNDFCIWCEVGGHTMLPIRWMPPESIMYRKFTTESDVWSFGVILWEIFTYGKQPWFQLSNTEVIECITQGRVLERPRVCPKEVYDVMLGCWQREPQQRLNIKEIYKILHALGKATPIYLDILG
Sequence of BDNF/NT-3 growth factors receptor (Homo sapiens) (Q16620 32-822 limits assumed): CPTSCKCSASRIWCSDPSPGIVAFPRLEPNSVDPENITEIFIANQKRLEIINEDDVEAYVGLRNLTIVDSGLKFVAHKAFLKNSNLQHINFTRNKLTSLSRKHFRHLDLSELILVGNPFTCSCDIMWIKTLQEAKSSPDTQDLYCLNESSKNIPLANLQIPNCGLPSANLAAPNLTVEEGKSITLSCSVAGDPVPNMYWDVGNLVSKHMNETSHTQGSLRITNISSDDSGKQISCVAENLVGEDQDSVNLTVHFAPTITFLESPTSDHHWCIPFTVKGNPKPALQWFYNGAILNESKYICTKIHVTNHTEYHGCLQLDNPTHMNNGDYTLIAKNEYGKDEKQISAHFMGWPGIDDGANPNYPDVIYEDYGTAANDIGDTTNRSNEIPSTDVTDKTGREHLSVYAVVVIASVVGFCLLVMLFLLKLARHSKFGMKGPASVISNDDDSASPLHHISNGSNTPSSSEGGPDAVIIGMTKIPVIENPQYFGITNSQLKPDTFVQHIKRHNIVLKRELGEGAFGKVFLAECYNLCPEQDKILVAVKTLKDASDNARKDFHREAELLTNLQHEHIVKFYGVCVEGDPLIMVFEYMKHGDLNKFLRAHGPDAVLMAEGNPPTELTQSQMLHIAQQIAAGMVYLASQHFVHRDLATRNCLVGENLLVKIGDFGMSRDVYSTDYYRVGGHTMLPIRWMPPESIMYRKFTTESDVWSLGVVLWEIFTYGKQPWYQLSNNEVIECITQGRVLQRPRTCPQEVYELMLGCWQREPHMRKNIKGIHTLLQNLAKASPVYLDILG
Sequence of Dual specificity protein kinase CLK4 (Homo sapiens) (Q9HAZ1 whole entry, looked up): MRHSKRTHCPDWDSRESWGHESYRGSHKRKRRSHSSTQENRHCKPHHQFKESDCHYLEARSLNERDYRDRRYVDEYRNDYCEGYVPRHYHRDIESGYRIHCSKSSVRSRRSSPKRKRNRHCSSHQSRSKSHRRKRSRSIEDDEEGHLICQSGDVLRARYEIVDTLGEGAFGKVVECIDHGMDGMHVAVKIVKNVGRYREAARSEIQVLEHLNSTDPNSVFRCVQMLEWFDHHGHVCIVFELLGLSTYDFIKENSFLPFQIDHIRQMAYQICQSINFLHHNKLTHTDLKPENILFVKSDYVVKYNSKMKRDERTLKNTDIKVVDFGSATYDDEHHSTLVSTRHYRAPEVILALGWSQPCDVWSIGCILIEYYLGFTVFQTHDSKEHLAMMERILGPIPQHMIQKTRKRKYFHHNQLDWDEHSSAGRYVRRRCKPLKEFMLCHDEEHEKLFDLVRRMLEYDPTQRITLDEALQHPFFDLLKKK

Row | SMILES | inhibition [1] | inhibition [2] | inhibition [3] | IC50 [4] [nM] | inhibition [5] | inhibition [6] | inhibition [7]
1 | COc1nc(N)nc(N[C@@H]2C[C@H](CO)[C@@H](O)[C@H]2O)c1-c1nc2ccccc2s1 | Active | Active | Active | > 20000 | Active | Active | Active
2 | CCCNc1nc(C)c(-c2nc3ccccc3s2)c(N2CCOCC2)n1 | Active | Active | Active | > 20000 | Active | Active | Active
3 | Nc1ncc(-c2ccc3ccccc3n2)c(N[C@@H]2C[C@H](CO)[C@@H](O)[C@H]2O)n1 | Active | Active | Active | – | Active | Active | Active
4 | N#Cc1nc(N)nc(N[C@@H]2C[C@H](CO)[C@@H](O)[C@H]2O)c1-c1nc2ccccc2s1 | Active | Active | Active | > 20000 | Active | Active | Active
5 | Nc1nc(N[C@@H]2C[C@H](CO)[C@@H](O)[C@H]2O)c(-c2nc3ccccc3s2)c(C2CC2)n1 | Active | Active | Active | > 20000 | Active | Active | Active
6 | CCCNc1nc(C)c(-c2nc3ccccc3s2)c(N[C@H]2CC[C@@H](CO)C2)n1 (racemic) | Active | Active | Active | > 20000 | Active | Active | Active
7 | Nc1ncc(-c2nc(-c3ccccc3)cs2)c(N[C@@H]2C[C@H](CO)[C@@H](O)[C@H]2O)n1 | Active | Active | Active | – | Active | Active | Active
8 | Nc1ncc(-c2nc3ccncc3s2)c(N[C@@H]2C[C@H](CO)[C@@H](O)[C@H]2O)n1 | Active | Active | Active | – | Active | Active | Active
9 | Nc1nc(N[C@@H]2C[C@H](CO)[C@@H](O)[C@H]2O)c(-c2nc3ccccc3s2)c(C(F)(F)F)n1 | Active | Active | Active | > 20000 | Active | Active | Active
10 | Cn1c(-c2cnc(N)nc2N[C@@H]2C[C@H](CO)[C@@H](O)[C@H]2O)nc2ccccc21 | Active | Active | Active | > 20000 | Active | Active | Active
11 | Nc1ncc(-c2nc3ccccc3o2)c(N[C@@H]2C[C@H](CO)[C@@H](O)[C@H]2O)n1 | Active | Active | Active | – | Active | Active | Active
12 | CCCNc1nc(C)c(-c2nc3ccccc3s2)c(N[C@@H]2CC[C@@H](O)[C@H]2O)n1 (racemic) | Active | Active | Active | > 20000 | Active | Active | Active
13 | Cc1nc(NCC2CC2)nc(N[C@@H]2C[C@H](CO)[C@@H](O)[C@H]2O)c1-c1nc2ccccc2s1 | Active | Active | Active | > 20000 | Active | Active | Active
14 | Nc1ncc(-c2nc3cnccc3s2)c(N[C@@H]2C[C@H](CO)[C@@H](O)[C@H]2O)n1 | Active | Active | Active | – | Active | Active | Active

Other lines, results leading:

Row | inhibition [1] | inhibition [2] | inhibition [3] | IC50 [4] [nM] | inhibition [5] | inhibition [6] | inhibition [7] | SMILES
15 | Active | Active | Active | 403 | Active | Active | Active | OC[C@H]1C[C@@H](Nc2nc(NC3CCC3)ncc2-c2nc3ccccc3s2)[C@H](O)[C@@H]1O
16 | Active | Active | Active | 300 | Active | Active | Active | Cc1cc(Nc2ncc(-c3nc4ccncc4s3)c(N[C@@H]3C[C@H](CO)[C@@H](O)[C@H]3O)n2)cc(C)n1
17 | Active | Active | Active | 1000 | Active | Active | Active | Cc1cc(Nc2ncc(-c3nc4ccccc4s3)c(N[C@@H]3C[C@H](CO)[C@@H](O)[C@H]3O)n2)cc(C)n1
18 | Active | Active | Active | 530 | Active | Active | Active | Nc1ncc(-c2nc3cccnc3s2)c(N[C@@H]2C[C@H](CO)[C@@H](O)[C@H]2O)n1
19 | Active | Active | Active | 42000 | Active | Active | Active | OC[C@H]1C[C@@H](Nc2nc(Nc3ccccc3)ncc2-c2nc3ccccc3s2)[C@H](O)[C@@H]1O
20 | Active | Active | Active | 4700 | Active | Active | Active | Nc1ncc(-c2nccs2)c(N[C@@H]2C[C@H](CO)[C@@H](O)[C@H]2O)n1
21 | Active | Active | Active | 1140 | Active | Active | Active | Nc1ncc(-c2cnc3ccccn23)c(N[C@@H]2C[C@H](CO)[C@@H](O)[C@H]2O)n1
22 | Active | Active | Active | 1080 | Active | Active | Active | OC[C@H]1C[C@@H](Nc2nc(NC3CCOCC3)ncc2-c2nc3ccccc3s2)[C@H](O)[C@@H]1O
23 | Active | Active | Active | 240 | Active | Active | Active | CCCNc1nc(C)c(-c2nc3ccccc3s2)c(N[C@@H]2C[C@H](CO)[C@@H](O)[C@H]2O)n1
24 | Active | Active | Active | 1190 | Active | Active | Active | CCCNc1ncc(-c2nc3ccccc3s2)c(N[C@@H]2C[C@H](CO)[C@@H](O)[C@H]2O)n1
25 | Active | Active | Active | 1000 | Active | Active | Active | Cc1cc(Nc2ncc(-c3nc4ccccc4s3)c(N[C@@H]3C[C@H](CO)[C@@H](O)[C@H]3O)n2)ccn1
26 | Active | Active | Active | 1060 | Active | Active | Active | Cc1nc(N)nc(N[C@@H]2C[C@H](CO)[C@@H](O)[C@H]2O)c1-c1nc2ccccc2s1
27 | Active | Active | Active | 228 | Active | Active | Active | COCCCNc1ncc(-c2nc3ccccc3s2)c(N[C@@H]2C[C@H](CO)[C@@H](O)[C@H]2O)n1
28 | Active | Active | Active | 6000 | Active | Active | Active | OC[C@H]1C[C@@H](Nc2nc(Nc3cncnc3)ncc2-c2nc3ccccc3s2)[C@H](O)[C@@H]1O
29 | Active | Active | Active | 333 | Active | Active | Active | OC[C@H]1C[C@@H](Nc2nc(NCC3CC3)ncc2-c2nc3ccccc3s2)[C@H](O)[C@@H]1O
